Data reported in article PMC6278829 (Anesthesiology, 2018).
pIC50: −log10 of the molar value.

Legend:
[1] = target: α1β3γ2L GABAA receptors (β+ – α− sites) (Homo sapiens, UniProt P14867+P18507+P28472); test: Inhibition of ^3[H]azi-etomidate photoaffinity labeling of purified receptors; type: binding; settings: read-out: IC50 for Inhibiting Photoaffinity Labeling by ^3[H]Azi-etomidate (95% CI); ~2 μM photolabel; 1 mM GABA (open/desensitized state)
[2] = test system: GABAA receptor transmembrane anesthetic binding sites; settings: cited from earlier work
α1β3γ2L GABAA receptors = α1β3γ2L GABAA receptors (Homo sapiens, UniProt P14867+P18507+P28472); type: cell-based; settings: 100 μM drug; wild-type receptors; n = 6 oocytes; EC5 GABA alone 4.4 ± 1.2%; P = 0.002
Sequence of α1β3γ2L GABAA receptors (P14867 28-456): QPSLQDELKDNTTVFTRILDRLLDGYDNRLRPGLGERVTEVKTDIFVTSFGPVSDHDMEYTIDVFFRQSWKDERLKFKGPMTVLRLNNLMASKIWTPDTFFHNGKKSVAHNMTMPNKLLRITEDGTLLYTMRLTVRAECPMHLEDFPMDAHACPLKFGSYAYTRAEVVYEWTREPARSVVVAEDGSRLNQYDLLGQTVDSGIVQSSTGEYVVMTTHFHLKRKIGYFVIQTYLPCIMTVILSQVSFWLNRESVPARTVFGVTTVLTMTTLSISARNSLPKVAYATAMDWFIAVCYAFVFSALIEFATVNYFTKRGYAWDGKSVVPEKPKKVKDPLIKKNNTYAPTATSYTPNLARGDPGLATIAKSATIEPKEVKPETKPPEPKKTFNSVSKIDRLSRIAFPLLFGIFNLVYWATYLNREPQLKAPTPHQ
Sequence of α1β3γ2L GABAA receptors (P28472 26-473): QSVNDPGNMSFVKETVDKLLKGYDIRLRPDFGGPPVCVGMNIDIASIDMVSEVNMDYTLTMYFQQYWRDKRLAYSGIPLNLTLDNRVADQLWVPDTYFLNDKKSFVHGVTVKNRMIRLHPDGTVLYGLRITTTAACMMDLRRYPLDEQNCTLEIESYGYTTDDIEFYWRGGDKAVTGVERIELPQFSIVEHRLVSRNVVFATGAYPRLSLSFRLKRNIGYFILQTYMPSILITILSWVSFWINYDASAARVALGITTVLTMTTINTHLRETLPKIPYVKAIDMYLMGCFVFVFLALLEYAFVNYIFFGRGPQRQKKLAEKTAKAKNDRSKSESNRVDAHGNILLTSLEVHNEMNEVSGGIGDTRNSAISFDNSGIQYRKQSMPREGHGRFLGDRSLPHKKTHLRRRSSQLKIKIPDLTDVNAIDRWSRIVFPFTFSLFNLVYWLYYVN
Sequence of α1β3γ2L GABAA receptors (P18507 40-475): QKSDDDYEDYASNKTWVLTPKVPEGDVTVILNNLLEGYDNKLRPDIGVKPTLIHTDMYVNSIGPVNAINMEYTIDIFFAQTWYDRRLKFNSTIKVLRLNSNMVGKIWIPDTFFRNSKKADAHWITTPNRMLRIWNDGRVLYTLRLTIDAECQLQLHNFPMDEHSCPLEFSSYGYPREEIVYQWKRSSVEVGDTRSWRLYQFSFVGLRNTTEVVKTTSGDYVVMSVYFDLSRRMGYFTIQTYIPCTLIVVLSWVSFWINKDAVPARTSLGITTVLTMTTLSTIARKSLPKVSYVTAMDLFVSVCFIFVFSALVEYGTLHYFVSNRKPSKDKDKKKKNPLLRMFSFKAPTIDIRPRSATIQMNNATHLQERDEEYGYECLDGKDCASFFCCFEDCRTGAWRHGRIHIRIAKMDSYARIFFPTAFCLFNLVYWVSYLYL

Sequence of α1β3γ2L GABAA receptors (β+ – α− sites) (P14867 28-456): as the sequence (P14867 28-456) above
Sequence of α1β3γ2L GABAA receptors (β+ – α− sites) (P28472 26-473): as the sequence (P28472 26-473) above
Sequence of α1β3γ2L GABAA receptors (β+ – α− sites) (P18507 40-475): as the sequence (P18507 40-475) above

Row | Compound | pIC50 [1] | also measured
1 | CCOC(=O)c1cncn1[C@H](C)c1ccc(Br)cc1 [p-Bromo-etomidate] | 5.09 | –
2 | CC(c1ccccc1)n1cncc1C(=O)OCCC1(C)N=N1 (stereo not drawn) [^3[H]azi-etomidate] | – | Selectivity of photolabel for its respective class of binding sites [2]: more than 50 fold
3 | C=CC[C@@]1(c2cccc(C3(C(F)(F)F)N=N3)c2)C(=O)NC(=O)N(C)C1=O | – | Selectivity of photolabel for its respective class of binding sites [2]: more than 50 fold
4 | m-Dimethoxy-etomidate | 3.08 | –
5 | CCOC(=O)c1cncn1[C@H](C)c1ccc(F)cc1 [p-Fluoro-etomidate] | 5.44 | –
6 | CCOC(=O)c1cncn1[C@H](C)c1cccc(OC(C)C)c1 [m-Isopropoxy-etomidate] | 3.68 | –
7 | CCOC(=O)c1cncn1C(C)c1cccc2ccccc12 (stereo not drawn) [Naphthalene-etomidate] | – | Peak amplitude of EC5 GABA-evoked current with drug (α1β3γ2L GABAA receptors): 10 ± 2.4 % of the current produced by 1 mM GABA
8 | CCOC(=O)c1cncn1C(C)c1ccc2ccccc2c1 (stereo not drawn) [Naphthalene2-etomidate] | 4.11 | –
9 | CCOC(=O)c1cncn1[C@H](C)c1ccc(OC)cc1 [p-Methoxy-etomidate] | 4.12 | –
